Test results reported in ChEMBL document CHEMBL1201862, “PubChem BioAssay data set” (2004).
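The compound was tested at five concentrations on cells cultured in 96-well plates, with a 48-hour exposure period. GI50 is the concentration that inhibits growth by half.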 Activity calls are given as the source filed them. Cut-off read from the data, not from the text of the source: active = GI50 up to about 1.1 µM and inactive = higher.

Experiments:
Test in all cases: NCI tumour cell line growth inhibition, 48 h
[1] = system: BT-549
[2] = system: M14
[3] = system: CCRF-CEM
[4] = system: MDA-MB-231
[5] = system: UO-31
[6] = system: RPMI-8226
[7] = system: COLO 205
[8] = system: SNB-75
[9] = system: IGROV-1
[10] = system: RXF 393
[11] = system: NCI-H522
[12] = system: ACHN
[13] = system: SW-620
[14] = system: HCC 2998
[15] = system: OVCAR-5
[16] = system: EKVX
[17] = system: HL-60
[18] = system: SK-MEL-5
[19] = system: OVCAR-4
[20] = system: SK-OV-3
[21] = system: Malme-3M
[22] = system: SF-295
[23] = system: SK-MEL-28
[24] = system: OVCAR-8
[25] = system: MOLT-4
[26] = system: DU-145
[27] = system: LOX IMVI
[28] = system: TK-10
[29] = system: HCT-15
[30] = system: Hs-578T
[31] = system: NCI-H460
[32] = system: A549
[33] = system: NCI-H23
[34] = system: CAKI-1
[35] = system: NCI/ADR-RES
[36] = system: HOP-62
[37] = system: OVCAR-3
[38] = system: HCT-116
[39] = system: UACC-257
[40] = system: MDA-MB-435
[41] = system: NCI-H226
[42] = system: K562
[43] = system: SR
[44] = system: T47D
[45] = system: SF-539
[46] = system: KM12
[47] = system: SNB-19
[48] = system: 786-0
[49] = system: SN12C
[50] = system: MCF7
[51] = system: SF-268
[52] = system: PC-3
[53] = system: HOP-92
[54] = system: MDA-N
[55] = system: SK-MEL-2
[56] = system: U-251
[57] = system: HT-29

Cc1cn(S(=O)(=O)c2ccccc2)c2c(OCc3ccccc3)cc(NC(=O)c3cc4cc([N+](=O)[O-])ccc4s3)cc12
GI50 [1]: > 100 µM (inactive)
GI50 [2]: 37.8 µM (inactive)
GI50 [3]: 38.9 µM (inactive)
GI50 [4]: 49.1 µM (inactive)
GI50 [5]: > 100 µM (inactive)
GI50 [6]: > 100 µM (inactive)
GI50 [7]: > 100 µM (inactive)
GI50 [8]: 68.9 µM (inactive)
GI50 [9]: > 100 µM (inactive)
GI50 [10]: > 100 µM (inactive)
GI50 [11]: > 100 µM (inactive)
GI50 [12]: > 100 µM (inactive)
GI50 [13]: > 100 µM (inactive)
GI50 [14]: > 100 µM (inactive)
GI50 [15]: > 100 µM (inactive)
GI50 [16]: > 100 µM (inactive)
GI50 [17]: 91 µM (inactive)
GI50 [18]: > 100 µM (inactive)
GI50 [19]: > 100 µM (inactive)
GI50 [20]: > 100 µM (inactive)
GI50 [21]: 89.7 µM (inactive)
GI50 [22]: 58.7 µM (inactive)
GI50 [23]: > 100 µM (inactive)
GI50 [24]: > 100 µM (inactive)
GI50 [25]: 59.6 µM (inactive)
GI50 [26]: > 100 µM (inactive)
GI50 [27]: > 100 µM (inactive)
GI50 [28]: > 100 µM (inactive)
GI50 [29]: > 100 µM
GI50 [30]: > 100 µM (inactive)
GI50 [31]: > 100 µM (inactive)
GI50 [32]: > 100 µM (inactive)
GI50 [33]: > 100 µM (inactive)
GI50 [34]: > 100 µM (inactive)
GI50 [35]: > 100 µM (inactive)
GI50 [36]: > 100 µM (inactive)

CCn1c(=O)c2nc(SC)sc2n(-c2ccccc2)c1=O
GI50 [37]: > 100 µM (inactive)
GI50 [2]: > 100 µM (inactive)
GI50 [3]: > 100 µM (inactive)
GI50 [4]: > 100 µM (inactive)
GI50 [5]: 26 µM (inactive)
GI50 [6]: > 100 µM (inactive)
GI50 [38]: > 100 µM (inactive)
GI50 [39]: > 100 µM (inactive)
GI50 [7]: > 100 µM (inactive)
GI50 [40]: > 100 µM (inactive)
GI50 [8]: > 100 µM (inactive)
GI50 [9]: > 100 µM (inactive)
GI50 [10]: > 100 µM (inactive)
GI50 [11]: > 100 µM (inactive)
GI50 [12]: > 100 µM (inactive)
GI50 [41]: > 100 µM (inactive)
GI50 [13]: > 100 µM (inactive)
GI50 [14]: > 100 µM (inactive)
GI50 [15]: > 100 µM (inactive)
GI50 [42]: > 100 µM (inactive)
GI50 [43]: > 100 µM (inactive)
GI50 [44]: > 100 µM (inactive)
GI50 [17]: > 100 µM (inactive)
GI50 [18]: > 100 µM (inactive)
GI50 [45]: > 100 µM (inactive)
GI50 [19]: > 100 µM (inactive)
GI50 [46]: > 100 µM (inactive)
GI50 [20]: > 100 µM (inactive)
GI50 [21]: > 100 µM (inactive)
GI50 [22]: > 100 µM (inactive)
GI50 [47]: > 100 µM (inactive)
GI50 [48]: > 100 µM (inactive)
GI50 [49]: > 100 µM (inactive)
GI50 [23]: > 100 µM (inactive)
GI50 [50]: > 100 µM (inactive)
GI50 [51]: > 100 µM (inactive)
GI50 [24]: > 100 µM (inactive)
GI50 [25]: > 100 µM (inactive)
GI50 [26]: > 100 µM (inactive)
GI50 [52]: > 100 µM (inactive)
GI50 [27]: > 100 µM (inactive)
GI50 [28]: > 100 µM (inactive)
GI50 [29]: > 100 µM
GI50 [53]: 54.1 µM (inactive)
GI50 [54]: > 100 µM (inactive)
GI50 [31]: > 100 µM (inactive)
GI50 [32]: > 100 µM (inactive)
GI50 [33]: > 100 µM (inactive)
GI50 [55]: > 100 µM (inactive)
GI50 [56]: > 100 µM (inactive)
GI50 [35]: > 100 µM (inactive)
GI50 [36]: > 100 µM (inactive)
GI50 [57]: > 100 µM (inactive)
